Measurements taken from patent publication EP4496786B1, “CRYSTALLINE FORM OF 2-ACRYLAMIDO-2-METHYLPROPANESULPHONIC ACID POTASSIUM SALT” (SNF Group, priority 2023, dated 2024).

How the values were obtained:
Format in all cases: physicochemical
[1] = Particle-size distribution by laser diffraction (Cilas 1190)
Experimental: ATBS AH and crystals of ATBS.K AK2a are analysed by laser diffraction to determine their particle-size distribution.
The laser diffraction equipment used is a Cilas 1190.

[2] = Storage stability of ATBS / ATBS.K stored in solid form: homopolymer by steric exclusion chromatography; details: newly prepared solution
Experimental: In parallel, the stability of the different ATBS (acid AH or potassium salt AK2a) in solid form was also assessed over the same period of time.
In this case, every three months, 500 g of a solution of ATBS.K was freshly prepared according to the preparation process described in example 10a or 11 using the stored ATBS products of AH, AK2a and CE-AK2c to 2e.
Stability of the solid products was also assessed by monitoring the amount of homopolymers of ATBS.K present after that time.
The solutions were analysed by liquid-phase steric exclusion chromatography using an Agilent 1260 chromatograph equipped with Aquagel-OH 20, 30, 40 and 50 columns allowing analysis of anionic polymers up to 600,000 g/mol PEG equivalent.
The solutions of ATBS.K were diluted to 2000 ppm (by weight in water) before being injected. The UV signal at 250 nm at the column outlet was integrated for the polymer peaks and are detailed in tables 4 and 5 below. The larger the signal area, the more polymer is present, and therefore the lower the stability of the product over time. Table 4: Stability of ATBS and ATBS potassium salt stored in solutions

[3] = Minimum ignition energy (MIE), standard NF EN 13821, vertical Hartmann tube; details: dispersed solid mass 0,5 g
Excerpt: The minimum ignition energy represents the minimum energy that must be supplied to a product (chemical compound) to cause it to ignite. The energy may be electrical or thermal. The minimum ignition energy is an essential piece of information when considering the risk of explosion during product handling (transfer, storage, reaction, shaping, etc.). In the case of solids, this energy is the minimum energy of an electric spark likely to ignite a cloud of dust. The higher the value of the minimum ignition energy, the less risk the solid presents when used, handled or stored. The minimum ignition energy is measured in accordance with standard NF EN 13821. The explosimeter is a vertical Hartmann tube. The dust dispersion system is of the mushroom type. Total induction is less than 25 microhenry. Discharge voltage is between 5 kV and 15 kV. The electrodes are made of brass and spaced apart by a minimum distance of 6 mm.

Row | SMILES | 90% of the particles are smaller than [1] | d50 value [1] | UV signal at 250 nm integrated for the polymer peaks ([2]; T0) [mV.s] | UV signal at 250 nm integrated for the polymer peaks ([2]; T0 + 3 months, potassium salt) [mV.s] | UV signal at 250 nm integrated for the polymer peaks ([2]; T0 + 6 months) [mV.s] | UV signal at 250 nm integrated for the polymer peaks ([2]; T0 + 9 months) [mV.s] | UV signal at 250 nm integrated for the polymer peaks ([2]; T0 + 12 months) [mV.s] | further results
1 | C=CC(=O)NC(C)(C)CS(=O)(=O)[O-].[K+] [ATBS.K AK2a, 2-acrylamido-2-methylpropanesulphonic acid potassium salt] | approximately 1500 µm | approximately 600 µm | 0 | 200 | 6532 | 9532 | 25631 | particles smaller than 325 µm [1]: less than 10%; Flame ([3]; High energy): Small; Pressure ([3]; High energy): Low
2 | C=CC(=O)NC(C)(C)CS(=O)(=O)[O-].[K+] [ATBS.K CE-AK2c, 2-acrylamido-2-methylpropanesulphonic acid potassium salt] | – | – | 0 | 261 | – | – | – | –
3 | C=CC(=O)NC(C)(C)CS(=O)(=O)O [ATBS AH, 2-acrylamido-2-methylpropanesulphonic acid] | 100 µm | approximately 40 µm | 0 | – | 7702 | 10503 | 256300 | UV signal at 250 nm integrated for the polymer peaks ([2]; T0 + 3 months): 250 mV.s; Flame ([3]; Energy 300 mJ): Average; Pressure ([3]; Energy 300 mJ): Average; Flame ([3]; Energy 500 mJ): Average; Pressure ([3]; Energy 500 mJ): Average; Flame ([3]; Energy 1000 mJ): Small; Pressure ([3]; Energy 1000 mJ): Low
4 | C=CC(=O)NC(C)(C)CS(=O)(=O)[O-].[K+] [ATBS.K CE-AK2e, 2-acrylamido-2-methylpropanesulphonic acid potassium salt] | – | – | 0 | 251 | – | – | – | –
5 | C=CC(=O)NC(C)(C)CS(=O)(=O)[O-].[K+] [ATBS.K CE-AK2d, 2-acrylamido-2-methylpropanesulphonic acid potassium salt] | – | – | 0 | 254 | – | – | – | –
